Assay results taken from patent US20230286999A1, “ORGANIC COMPOUND, LIGHT-RECEIVING DEVICE, LIGHT-EMITTING AND LIGHT-RECEIVING APPARATUS, AND ELECTRONIC DEVICE” (Semiconductor Energy Laboratory Co., Ltd., priority 2022, published 2023).

Columns and labels:
[1] = Thermogravimetry-differential thermal analysis (TG-DTA); type: physicochemical; conditions: 10° C./min
Description: The thermogravimetry-differential thermal analysis (TG-DTA) of EtHex-FT2TDMN was performed. The measurement was conducted using a high vacuum differential type differential thermal balance (TG-DTA 2410SA, manufactured by Bruker AXS K.K.). The measurement was performed under two conditions. The first measurement was performed at atmospheric pressure at a temperature rising rate of 10° C./min under a nitrogen stream (flow rate: 200 mL/min). The second measurement was performed at 10 Pa at a temperature rising rate of 10° C./min under a nitrogen stream (flow rate: 2 mL/min).
The thermogravimetry-differential thermal analysis (TG-DTA) of EtHex-BisDCVTTt was performed. The measurement was conducted using a high vacuum differential type differential thermal balance (TG-DTA 2410SA, manufactured by Bruker AXS K.K.). The measurement was performed under two conditions. The first measurement was performed under atmospheric pressure at a temperature rising rate of 10° C./min under a nitrogen stream (flow rate: 200 mL/min). The second measurement was performed at 10 Pa at a temperature rising rate of 10° C./min under a nitrogen stream (flow rate: 2 mL/min).

[2] = Solubility evaluation using a liquid chromatography mass spectrometer; type: physicochemical; conditions: for Ratio of chromatogram peak areas (Peak area of material/Peak area of solvent × 100), considered as the solubility: 0.5 mg material in 0.25 mL chloroform + 2.5 mL acetonitrile, filtrate after 18 hours, DPAPhA: 1 mg in 1 mL toluene, 5-fold dilution with acetonitrile, 100% = completely dissolved; for solubility compared with FT2TDMN (in words): chloroform/acetonitrile sample
Description: In Example 3, the solubilities of materials that can be used for a photoelectric conversion device of one embodiment of the present invention are described. The solubilities of the materials were measured using a liquid chromatography mass spectrometer.
In Example 3, the solubilities of the organic compound (abbreviation: EtHex-FT2TDMN) represented by Structural Formula (100) in Embodiment 1 and the organic compound (abbreviation: EtHex-BisDCVTTt) represented by Structural Formula (200) in Embodiment 1 were evaluated. As a comparative example, FT2TDMN, which is a material having no branched alkyl, was evaluated. Furthermore, DPAPhA, which is a material with high solubility, was also evaluated as a reference sample.
The solubilities were measured using a liquid chromatography mass spectrometer. Specifically, chromatogram peak areas of the solvent and the material in the sample were obtained, the proportion of the peak area of the material to the peak area of the solvent was calculated, and the calculated value was considered as the solubility.
Note that the solubility of the case where the sample is completely dissolved is 100%. In Example 3, DPAPhA is a reference sample that is completely dissolved. In the case where a chromatogram peak is not detected and an MS spectrum is detected from a sample, the mass of the sample is regarded as being lower than the detection limit and the solubility is 0%.
The liquid chromatography mass spectrometer is constructed of ACQUITY H-Class (produced by Waters Corporation) and Xevo™ G2 Q-TOF MS (produced by Waters Corporation), and ACQUITY UPLC (registered trademark) BEH C8 Column ([…], 2.1×100 mm) (produced by Waters Corporation, hereinafter referred to as Column) was used as a column.
Samples of EtHex-FT2TDMN, EtHex-BisDCVTTt, and FT2TDMN used for solubility evaluation were formed. Specifically, in a reagent bottle made of glass were put 0.5 mg of the material and 0.25 mL of chloroform, and ultrasonic treatment was performed for 1 minute. To the obtained mixture, 2.5 mL of acetonitrile was added, and the resulting mixture was left still. After 18 hours, the resulting mixture was filtrated. With the use of the obtained filtrate as a sample, a solubility test for evaluating the solubility was performed using the liquid chromatography mass spectrometer.
Next, the DPAPhA sample used for solubility evaluation was formed. In a reagent bottle made of glass were put 1 mg of the material and 1 mL of toluene, and ultrasonic treatment was performed for 1 minute. Acetonitrile was added to the obtained solution to make a 5-fold dilution. The dilute solution was used as the sample and took the solubility test with the liquid chromatography mass spectrometer.
A measurement method for the solubility test for evaluating the solubility using the liquid chromatography mass spectrometer is described. As a mobile phase A and a mobile phase B, acetonitrile and a formic acid aqueous solution (0.1%) were used, respectively; the velocity of flow of a solvent was 0.5 mL/min; and the sample injection amount was 5 μL.
For 1 minute from the beginning of the measurement, the ratio of a mobile phase A to a mobile phase B was set to be 75:25. From 1 minute to 9 minutes, measurement was performed with a linear gradient to the ratio of 95:5. After a lapse of 10 minutes, measurement was performed for 5 minutes with the ratio of 95:5 held.
For 1 minute from the beginning of the measurement, the ratio of a mobile phase A to a mobile phase B was set to be 85:15. From 1 minute to 9 minutes, measurement was performed with a linear gradient to the ratio of 95:5. After a lapse of 10 minutes, measurement was performed for 5 minutes with the ratio of 95:5 held.
For 1 minute from the beginning of the measurement, the ratio of a mobile phase A to a mobile phase B was set to be 40:60. From 1 minute to 9 minutes, measurement was performed with a linear gradient to the ratio of 95:5. […]

[3] = 10 Pa, nitrogen stream 2 mL/min
[4] = atmospheric pressure, nitrogen stream 200 mL/min

SMILES | temperature (decomposition temperature) at which the weight obtained by thermogravimetry was reduced by 5% [1, 3] | temperature (decomposition temperature) at which the weight obtained by thermogravimetry was reduced by 5% [1, 4] | Ratio of chromatogram peak areas (Peak area of material/Peak area of solvent × 100), considered as the solubility [2] | solubility compared with FT2TDMN (in words) [2] | chromatogram peak detection in solubility measurement (in words) ([2]; only an MS spectrum was detected, regarded as below detection limit, solubility 0%)
CCCCC(CC)Cc1cc(-c2cc3sc(-c4cc5sc(-c6cc(CC(CC)CCCC)c(C=C(C#N)C#N)s6)cc5s4)cc3s2)sc1C=C(C#N)C#N (centres unmarked) [EtHex-BisDCVTTt] | 295 °C | 362 °C | 3.5% | favorable solubilities | 
N#CC(C#N)=Cc1ccc(-c2cc3sc(-c4ccc(C=C(C#N)C#N)s4)cc3s2)s1 [FT2TDMN, reference compound] |  |  | 0% |  | no chromatogram peak was detected
c1ccc(-c2c3ccccc3c(N(c3ccccc3)c3ccc(N(c4ccccc4)c4ccccc4)cc3)c3ccccc23)cc1 [DPAPhA, reference compound] |  |  | 100% |  | 
CCCCC(CC)Cc1cc(-c2cc3sc(-c4cc(CC(CC)CCCC)c(C=C(C#N)C#N)s4)cc3s2)sc1C=C(C#N)C#N (centres unmarked) [EtHex-FT2TDMN, 2,2′-[5,5′-(thieno[3,2-b]thiophene-2,5-diyl)bis(3-(2-ethylhexyl)thiophene-5,2-diyl)]bis(methan-1-yl-1-ylidene)dimalononitrile] | 244 °C | 325 °C | 18% | favorable solubilities | 
